Measurements: US8586755B2, “Substituted nicotinamides as KCNQ2/3 modulators” (Grünenthal GmbH, priority 2009, dated 2013)
pEC50: −log10 of the molar value.

Biological target: T1, KCNQ2/3 channels (Homo sapiens, UniProt O43525+O43526)
T1 construct: expressed in transfected cells
Test: Fluorescence assay using a voltage sensitive dye (fluorimetry)
Format: cell-based
Details: CHO-K1 cells expressing KCNQ2/3 channels; for pEC50: agonistic activity; for Emax: retigabine 50 μM = 100%, read-out: Fluorimetry % efficacy (retigabine 50 μM = 100%)
Method: Pharmacological Experiments Fluorescence Assay Using a Voltage Sensitive Dye
Human CHO-K1 cells expressing KCNQ2/3 channels are cultivated adherently at 37° C., 5% CO2 and 95% humidity in cell culture bottles (e.g. 80 cm^2 TC flasks, Nunc) with DMEM-high glucose (Sigma Aldrich, D7777) including 10% FCS (PAN Biotech, e.g. 3302-P270521) or alternatively MEM Alpha Medium (1×, liquid, Invitrogen, #22571), 10% fetal calf serum (FCS) (Invitrogen, #10270-106, heat-inactivated) and the necessary selection antibiotics.
Before being sown out for the measurements, the cells are washed with a 1×DPBS buffer without Ca^2+/Mg^2+ (e.g. Invitrogen, #14190-094) and detached from the bottom of the culture vessel by means of Accutase (PAA Laboratories, #L11-007) (incubation with Accutase for 15 min at 37° C.). The cell count then present is determined using a CASY™ cell counter (TCC model, Schärfe System) in order subsequently to apply, depending on the density optimization for the individual cell line, 20,000-30,000 cells/well/100 μl of the described nutrient medium to 96-well measuring plates of the Corning™ CellBIND™ type (Flat Clear Bottom Black Polystyrene Microplates, #3340). Incubation is then carried out for one hour at room temperature, without gassing or adjusting the humidity, followed by incubation for 24 hours at 37° C., 5% CO2 and 95% humidity.
The voltage-sensitive fluorescent dye from the Membrane Potential Assay Kit (Red™ Bulk format part R8123 for FLIPR, MDS Analytical Technologies™) is prepared by dissolving the contents of a vessel Membrane Potential Assay Kit Red Component A in 200 ml of extracellular buffer (ES buffer, 120 mM NaCl, 1 mM KCl, 10 mM HEPES, 2 mM CaCl2, 2 mM MgCl2, 10 mM glucose; pH 7.4). After removal of the nutrient medium, the cells are washed with 200 μl of ES buffer, then covered with a layer of 100 μl of the dye solution prepared above and incubated for 45 min at room temperature with the exclusion of light.
The fluorescence measurements are carried out with a BMG Labtech FLUOstar™ BMG Labtech NOVOstar™ or BMG Labtech POLARstar™ instrument (525 nm excitation, 560 nm emission, Bottom Read mode). After incubation of the dye, 50 μl of the test substances in the desired concentrations, or 50 μl of ES buffer for control purposes, are introduced into separate cavities of the measuring plate and incubated for 30 min at room temperature while being shielded from light. The fluorescence intensity of the dye is then measured for 5 min and the fluorescence value F1 of each well is thus determined at a given, constant time. 15 μl of a […] KCl solution ([…]) are then added to each well. The change in fluorescence is subsequently measured until all the relevant measured values have been obtained (mainly 5-30 min). At a given time after KCl application, a fluorescence value F2 is determined, in this case at the time of the fluorescence peak.
For calculation, the fluorescence intensity F2 is compared with the fluorescence intensity F1, and the agonistic activity of the target compound on the potassium channel is determined therefrom. F2 and F1 are calculated as follows: […]
In order to determine whether a substance has agonistic activity,
A substance has an agonistic activity on the potassium channel when
[formula] it is possible to conclude that a target compound has agonistic activity if an increase in
[formula] is to be observed as the dosage of the target compound increases.
Calculations of EC50 values are carried out with the aid of ‘Prism v4.0’ software (GraphPad Software™).

Row | pEC50 | Emax [%] | Compound
1 | 6.85 | 259 | O=C(NCC1CC2CCC1C2)c1cccnc1SCCCc1cc(F)cc(C(F)(F)F)c1 (centres unmarked) [compound 69, N-(5-Bicyclo[2.2.1]heptanyl-methyl)-2-[3-[3-fluoro-5-(trifluoromethyl)-phenyl]-propylsulfanyl]-pyridine-3-carboxylic acid amide]
2 | 6.61 | 308 | COc1cccc(CCCSc2ncccc2C(=O)NCC2CC3CCC2C3)c1 (centres unmarked) [compound 70, N-(5-Bicyclo[2.2.1]heptanyl-methyl)-2-[3-(3-methoxyphenyl)-propylsulfanyl]-pyridine-3-carboxylic acid amide]
3 | 7.14 | 107 | O=C(NCc1ccc(F)c(F)c1)c1cccnc1SCCCc1ccc(F)cc1 [compound 71, N-[(3,4-Difluoro-phenyl)-methyl]-2-[3-(4-fluorophenyl)-propylsulfanyl]-pyridine-3-carboxylic acid amide]
4 | 7.07 | 85 | O=C(NCc1ccc2c(c1)CCO2)c1cccnc1SCCCc1ccc(F)cc1 [compound 72, N-(2,3-Dihydro-benzofuran-5-yl-methyl)-2-[3-(4-fluorophenyl)-propylsulfanyl]-pyridine-3-carboxylic acid amide]
5 | 6.42 | 268 | O=C(NCC1CC2CCC1C2)c1cccnc1SCCCc1cccc(O)c1 (centres unmarked) [compound 73, N-(5-Bicyclo[2.2.1]heptanyl-methyl)-2-[3-(3-hydroxyphenyl)-propylsulfanyl]-pyridine-3-carboxylic acid amide]
6 | 7.21 | 260 | CC(CCc1ccc(F)cc1)Sc1ncccc1C(=O)NCC1CC2CCC1C2 (centres unmarked) [compound 74, N-(5-Bicyclo[2.2.1]heptanyl-methyl)-2-[[3-(4-fluorophenyl)-1-methyl-propyl]sulfanyl]-pyridine-3-carboxylic acid amide]
7 | 7.43 | 261 | CC(CSc1ncccc1C(=O)NCC1CC2CCC1C2)Cc1ccc(F)cc1 (centres unmarked) [compound 75, N-(5-Bicyclo[2.2.1]heptanyl-methyl)-2-[[3-(4-fluorophenyl)-2-methyl-propyl]sulfanyl]-pyridine-3-carboxylic acid amide]
8 | – | 33 | COc1ccccc1CNC(=O)c1cccnc1SCCCc1ccc(F)cc1 [compound 76, 2-[3-(4-Fluorophenyl)-propylsulfanyl]-N-[(2-methoxyphenyl)-methyl]-pyridine-3-carboxylic acid amide]
9 | 6.63 | 118 | COc1cccc(CNC(=O)c2cccnc2SCCCc2ccc(F)cc2)c1 [compound 77, 2-[3-(4-Fluorophenyl)-propylsulfanyl]-N-[(3-methoxyphenyl)-methyl]-pyridine-3-carboxylic acid amide]
10 | 6.50 | 53 | O=C(NCCc1ccccc1)c1cccnc1SCCCc1ccc(F)cc1 [compound 78, 2-[3-(4-Fluorophenyl)-propylsulfanyl]-N-phenethyl-pyridine-3-carboxylic acid amide]
11 | 7.00 | 103 | O=C(NCc1ccc(OC(F)(F)F)cc1)c1cccnc1SCCCc1ccc(F)cc1 [compound 79, 2-[3-(4-Fluorophenyl)-propylsulfanyl]-N-[[4-(trifluoromethyloxy)-phenyl]-methyl]-pyridine-3-carboxylic acid amide]
12 | 7.11 | 104 | O=C(NCc1ccc(C(F)(F)F)cc1)c1cccnc1SCCCc1ccc(F)cc1 [compound 80, 2-[3-(4-Fluorophenyl)-propylsulfanyl]-N-[[4-(trifluoromethyl)-phenyl]-methyl]-pyridine-3-carboxylic acid amide]
13 | 5.10 | 89 | O=C(NCCc1cccnc1)c1cccnc1SCCCc1ccc(F)cc1 [compound 81, 2-[3-(4-Fluorophenyl)-propylsulfanyl]-N-(2-pyridine-3-yl-ethyl)-pyridine-3-carboxylic acid amide]
14 | 5.19 | 96 | O=C(NCCc1ccccn1)c1cccnc1SCCCc1ccc(F)cc1 [compound 82, 2-[3-(4-Fluorophenyl)-propylsulfanyl]-N-(2-pyridine-2-yl-ethyl)-pyridine-3-carboxylic acid amide]
15 | 6.86 | 171 | O=C(NCc1ccccc1O)c1cccnc1SCCCc1ccc(F)cc1 [compound 83, 2-[3-(4-Fluorophenyl)-propylsulfanyl]-N-[(2-hydroxyphenyl)-methyl]-pyridine-3-carboxylic acid amide]
16 | 5.45 | 55 | O=C(NCc1cccc(O)c1)c1cccnc1SCCCc1ccc(F)cc1 [compound 84, 2-[3-(4-Fluorophenyl)-propylsulfanyl]-N-[(3-hydroxyphenyl)-methyl]-pyridine-3-carboxylic acid amide]
17 | 6.40 | 59 | Cc1cccc(CCNC(=O)c2cccnc2SCCCc2ccc(F)cc2)c1 [compound 85, 2-[3-(4-Fluorophenyl)-propylsulfanyl]-N-[2-(m-tolyl)-ethyl]-pyridine-3-carboxylic acid amide]
18 | – | 26 | Cc1ccccc1CCNC(=O)c1cccnc1SCCCc1ccc(F)cc1 [compound 86, 2-[3-(4-Fluorophenyl)-propylsulfanyl]-N-[2-(o-tolyl)-ethyl]-pyridine-3-carboxylic acid amide]
19 | 7.00 | 116 | O=C(NCc1cccc(OC(F)(F)F)c1)c1cccnc1SCCCc1ccc(F)cc1 [compound 87, 2-[3-(4-Fluorophenyl)-propylsulfanyl]-N-[[3-(trifluoromethyloxy)-phenyl]-methyl]-pyridine-3-carboxylic acid amide]
20 | 5.42 | 53 | O=C(NCc1ccc(O)cc1)c1cccnc1SCCCc1ccc(F)cc1 [compound 88, 2-[3-(4-Fluorophenyl)-propylsulfanyl]-N-[(4-hydroxyphenyl)-methyl]-pyridine-3-carboxylic acid amide]
21 | 5.26 | 72 | O=C(NCCc1ccncc1)c1cccnc1SCCCc1ccc(F)cc1 [compound 89, 2-[3-(4-Fluorophenyl)-propylsulfanyl]-N-(2-pyridine-4-yl-ethyl)-pyridine-3-carboxylic acid amide]
22 | – | 37 | Cc1ccc(CCNC(=O)c2cccnc2SCCCc2ccc(F)cc2)cc1 [compound 90, 2-[3-(4-Fluorophenyl)-propylsulfanyl]-N-[2-(p-tolyl)-ethyl]-pyridine-3-carboxylic acid amide]
23 | 6.74 | 241 | CC(CCSc1ncccc1C(=O)NCC1CC2CCC1C2)c1ccc(F)cc1 (centres unmarked) [compound 91, N-(5-Bicyclo[2.2.1]heptanyl-methyl)-2-[3-(4-fluorophenyl)-butylsulfanyl]-pyridine-3-carboxylic acid amide]
24 | 6.86 | 270 | O=C(NCC1CC2CCC1C2)c1cccnc1SCCCc1cc(F)c(F)cc1F (centres unmarked) [compound 92, N-(5-Bicyclo[2.2.1]heptanyl-methyl)-2-[3-(2,4,5-trifluoro-phenyl)-propylsulfanyl]-pyridine-3-carboxylic acid amide]
25 | 5.55 | 154 | O=C(NCCCc1ccccn1)c1cccnc1SCCCc1ccc(F)cc1 [compound 93, 2-[3-(4-Fluorophenyl)-propylsulfanyl]-N-(3-pyridine-2-yl-propyl)-pyridine-3-carboxylic acid amide]
